# Assay results: patent publication US10329277B2, “N-(2-((2-(dimethylamino)ethyl)(methyl)amino)-4-methoxy-5-((4-(3-methyl-2-OXO-2,3-dihydro-1h-benzo[d]imidazol-1-yl)pyrimidin-2-yl)amino)phenyl)acrylamide hydrochloride as an inhibitor of epidermal growth factor receptor activity” (CHIA TAI TIANQING PHARMACEUTICAL GROUP CO., LTD., priority 2015, dated 2019)
# Structures can show the parent of a compound that is named as a salt. Where two headings read alike, the source gives them in different places.
# Experiments:
# [1] = tested on: Human non-small cell lung cancer cells NCI-H1975; experiment: Cell proliferation assay, NCI-H1975 (CellTiter-Glo); format: cell-based; conditions: NCI-H1975, treatment 72 hours, read-out: Cell viability (IC50 nM) NCI-H1975
# Procedure: Human non-small cell lung cancer cells NCI-H1975 were cultured in RPIM-1640 culture medium supplemented with 10% fetal bovine serum and 1% penicillin-plus-streptomycin in a cell incubator (37° C., 5% CO2). The cells were seeded in a 96-well plate at a density of 2,000 cells per well (volume: 195 μl) and cultured overnight. On the next day, the compounds were added. In particular, the compounds were diluted at a 3-fold gradient with a starting concentration of 10 mM. 4 μl of each concentration was taken and added into 96 μl of culture medium. […] After treatment for 72 hours, the medium was aspirated and 30 μl of CellTiter-Glo® (Promega) reagent was added. Fluorescence signals were read on Envison (Perkin Elmer), and IC50 values of the compounds for inhibiting cell proliferation were calculated using GraphPad Prism 5.0.
# [2] = tested on: Human skin squamous carcinoma cell line A431; experiment: Cell proliferation assay, A431 (soft agar, CellTiter-Blue); format: cell-based; conditions: A-431, 168 h, A431, treatment 7 days, read-out: Cell viability (IC50 nM) A431
# Procedure: Human skin squamous carcinoma cell line A431 was cultured in DMEM supplemented with 10% fetal bovine serum and 1% penicillin-plus-streptomycin in a cell incubator (37° C., 5% CO2). In the tests of the compounds, the bottom substrate was at a concentration of 0.6%. Cells were re-suspended with 0.3% low-melting-point agar, and then seeded in a 96-well plate at a density of 2,000 cells per well (100 μl). The compounds were diluted at a 3-fold gradient with a starting concentration of 10 mM. 2 μl of each concentration was taken and added to 98 μl of culture medium, and then 5.3 μl of the mixture was added to the cell culture medium (final DMSO concentration being 0.1%, v/v). After treatment for one week (7 days), 20 μl of CellTiter-Blue® (Promega) reagent was added, and the plate was incubated at 37° C. for 4 hours. Fluorescence signals were read on Envison (Perkin Elmer), and IC50 values of the compound for inhibiting cell proliferation were calculated using GraphPad Prism 5.0.
# EGFR(WT) = target: T1, EGFR(WT) (Homo sapiens, UniProt P00533); experiment: In vitro enzymatic assay (HTRF), EGFR kinase; format: biochemical
# T1 construct: made in house; host or cells: insect cell expression system
# [3] = Pharmacokinetic assay in rats; format: in vivo; conditions: PO 10 mg/kg single dose, plasma
# Procedure: Healthy adult male rats were subjected to single-dose intragastric administration of the test compounds at a dose of 10 mg/kg with 20% sulfobutyl ether-β-cyclodextrin as an excipient. Before the experiment, the animals were fasted overnight, and the fasting time last from 10 hrs prior to the administration to 4 hrs after the administration. At 0.25, 0.5, 1, 2, 4, 6, 8 and 24 hrs after the intragastric administration, blood sampling was conducted. Approximately 0.3 mL of whole blood was collected from retro-orbital venous sinus, and placed into tubes that contained heparin as an anticoagulant. The samples were centrifuged at 4° C. and 4000 rpm for 5 min. The plasma was transferred into centrifuge tubes, and stored at −80° C. till being analyzed. Concentrations of test compounds in the plasma samples were analyzed with non-validated liquid chromatography-tandem mass spectrometry (LC-MS/MS). Plasma concentration-time data of individual animals was analyzed using WinNonlin (Professional Edition, version 6.3; Pharsight Company) software. Non-compartmental model was introduced in concentration analysis. The pharmacokinetic parameters of the test compounds were calculated.
# [4] = male rats, Hydrochloride, 10 mg/kg
# T1 sequence (P00533 25-1210): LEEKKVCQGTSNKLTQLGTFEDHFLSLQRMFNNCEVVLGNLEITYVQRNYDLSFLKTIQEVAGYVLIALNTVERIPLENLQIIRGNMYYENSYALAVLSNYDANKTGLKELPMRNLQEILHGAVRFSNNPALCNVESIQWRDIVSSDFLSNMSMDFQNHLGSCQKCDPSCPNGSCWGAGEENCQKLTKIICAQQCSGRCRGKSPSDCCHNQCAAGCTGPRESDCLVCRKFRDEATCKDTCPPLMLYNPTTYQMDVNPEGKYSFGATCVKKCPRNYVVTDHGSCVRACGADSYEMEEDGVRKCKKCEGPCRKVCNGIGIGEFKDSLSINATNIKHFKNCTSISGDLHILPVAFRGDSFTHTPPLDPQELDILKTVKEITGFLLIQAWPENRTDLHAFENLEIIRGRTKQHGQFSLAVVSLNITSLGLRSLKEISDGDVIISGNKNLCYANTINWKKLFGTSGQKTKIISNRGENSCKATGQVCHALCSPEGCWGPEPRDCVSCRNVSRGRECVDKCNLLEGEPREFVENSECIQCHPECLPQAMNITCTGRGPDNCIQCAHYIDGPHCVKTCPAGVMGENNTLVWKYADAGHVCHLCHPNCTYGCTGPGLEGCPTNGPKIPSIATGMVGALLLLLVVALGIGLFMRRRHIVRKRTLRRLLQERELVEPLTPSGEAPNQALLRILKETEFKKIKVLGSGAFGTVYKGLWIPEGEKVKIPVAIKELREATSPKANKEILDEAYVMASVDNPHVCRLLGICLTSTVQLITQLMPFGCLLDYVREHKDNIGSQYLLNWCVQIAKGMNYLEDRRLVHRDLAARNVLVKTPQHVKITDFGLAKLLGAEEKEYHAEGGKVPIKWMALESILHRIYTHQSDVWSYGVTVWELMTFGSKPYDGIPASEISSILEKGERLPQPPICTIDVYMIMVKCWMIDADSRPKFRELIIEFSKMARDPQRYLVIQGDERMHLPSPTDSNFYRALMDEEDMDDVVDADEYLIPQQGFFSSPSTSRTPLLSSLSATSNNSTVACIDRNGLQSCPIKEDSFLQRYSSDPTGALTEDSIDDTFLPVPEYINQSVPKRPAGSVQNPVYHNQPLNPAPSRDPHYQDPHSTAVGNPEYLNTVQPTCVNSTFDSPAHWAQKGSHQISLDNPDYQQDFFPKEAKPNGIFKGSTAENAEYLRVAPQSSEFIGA
IC50 [1] [nM],IC50 (EGFR(WT)) [nM],SMILES,other results
9.08,,"C=CC(=O)Nc1cc(Nc2nccc(-c3cn(C)c4ccccc34)n2)c(OC)cc1N(C)CCN(C)C [AZD9291, reference compound]",IC50 [2]: 53.5 nM
2.76,9.07,"C=CC(=O)Nc1cc(Nc2nccc(-n3c(=O)n(C)c4ccccc43)n2)c(OC)cc1N(C)CCN(C)C [Example 1, N-(2-((2-(dimethylamino)ethyl)(methyl)amino)-4-methoxy-5-(4-(3-methyl-2-oxo-2,3-dihydro-1H-benzo[d]imidazol-1-yl)pyrimidin-2-ylamino)phenyl)acrylamide Hydrochloride]","IC50 [2]: 22.5 nM; Tmax ([3]; male rats): 40.2 min; AUC0-INF [3, 4]: 667 ng·h/mL; Cmax [3, 4]: 272 ng/mL; t1/2 [3, 4]: 67.2 min"
0.96,2.59,"C=CC(=O)Nc1cc(Nc2nccc(-n3c(=O)[nH]c4ccccc43)n2)c(OC)cc1N(C)CCN(C)C [Example 2, N-(2-((2-(dimethylamino)ethyl)(methyl)amino)-4-methoxy-5-(4-(2-oxo-2,3-dihydrobenzo[d]imidazol-1-yl)pyrimidin-2-ylamino)phenyl)acrylamide Hydrochloride]",
,196,"C=CC(=O)Nc1cc(Nc2ncc(Cl)c(-n3c(=O)n(C)c4ccccc43)n2)c(OC)cc1N(C)CCN(C)C [Example 3, N-(5-(5-chloro-4-(3-methyl-2-oxo-2,3-dihydro-1H-benzo[d]imidazol-1-yl)pyrimidin-2-ylamino)-2-((2-(dimethylamino)ethyl)(methyl)amino)-4-methoxyphenyl) acrylamide Hydrochloride]",
2.87,20.6,"C=CC(=O)Nc1cc(Nc2ncc(Cl)c(-n3c(=O)[nH]c4ccccc43)n2)c(OC)cc1N(C)CCN(C)C [Example 4, N-(5-(5-chloro-4-(2-oxo-2,3-dihydro-1H-benzo[d]imidazol-1-yl)pyrimidin-2-ylamino)-2-((2-(dimethylamino)ethyl)(methyl)amino)-4-methoxyphenyl) acrylamide Hydrochloride]",
17,44.9,"C=CC(=O)Nc1cc(Nc2nccc(-n3c(=O)oc4ccccc43)n2)c(OC)cc1N(C)CCN(C)C [Example 5, N-(2-((2-(dimethylamino)ethyl)(methyl)amino)-4-methoxy-5-(4-(2-oxobenzo[d]oxazol-3(2H)-yl)pyrimidin-2-ylamino)phenyl) acrylamide Hydrochloride]",
,164,"COC/C=C/C(=O)Nc1cc(Nc2nccc(-n3c(=O)n(C)c4ccccc43)n2)c(OC)cc1N(C)CCN(C)C [Example 7, (E)-N-(2-((2-(dimethylamino)ethyl)(methyl)amino)-4-methoxy-5-(4-(3-methyl-2-oxo-2,3-dihydro-1H-benzo[d]imidazol-1-yl)pyrimidin-2-ylamino)phenyl)-4-methoxybut-2-enamide]",
,3.93,"C=CC(=O)Nc1cc(Nc2nccc(-n3c(=O)[nH]c4cc(C)ccc43)n2)c(OC)cc1N(C)CCN(C)C [Example 9, N-(2-((2-(dimethylamino)ethyl)(methyl)amino)-4-methoxy-5-(4-(5-methyl-2-oxo-2,3-dihydrobenzo[d]imidazol-1-yl)pyrimidin-2-ylamino)phenyl)acrylamide Hydrochloride]",
1.46,10.7,"C=CC(=O)Nc1cc(Nc2nccc(-n3c(=O)n(C)c4cc(F)ccc43)n2)c(OC)cc1N(C)CCN(C)C [Example 10, N-(2-((2-(dimethylamino)ethyl)(methyl)amino)-5-(4-(5-fluoro-3-methyl-2-oxo-2,3-dihydrobenzo[d]imidazol-1-yl)pyrimidin-2-ylamino)-4-methoxyphenyl) acrylamide Hydrochloride]",
3.7,2.79,"C=CC(=O)Nc1cc(Nc2nccc(-n3c(=O)[nH]c4cc(F)ccc43)n2)c(OC)cc1N(C)CCN(C)C [Example 11, N-(2-((2-(dimethylamino)ethyl)(methyl)amino)-5-(4-(5-fluoro-2-oxo-2,3-dihydrobenzo[d]imidazol-1-yl)pyrimidin-2-ylamino)-4-methoxyphenyl)acrylamide Hydrochloride]",
3.17,5.26,"C=CC(=O)Nc1cc(Nc2nccc(-n3c(=O)n(C)c4ccccc43)n2)c(OC)cc1N(C)CCNC [Example 12, N-(4-methoxy-2-(methyl(2-(methylamino)ethyl)amino)-5-(4-(3-methyl-2-oxo-2,3-dihydrobenzo[d]imidazol-1-yl)pyrimidin-2-ylamino)phenyl)acrylamide Hydrochloride]",
,,"C=CC(=O)Nc1cc(Nc2nccc(-n3c(=O)n(C)c4ccccc43)n2)c(OC)cc1N(C)CCN(C)C [Example 13, N-(2-((2-(dimethylamino)ethyl)(methyl)amino)-4-methoxy-5-(4-(3-methyl-2-oxo-2,3-dihydro-1H-benzo[d]imidazol-1-yl)pyrimidin-2-ylamino)phenyl)acrylamide]","Cmax ([3]; male rats, 10 mg/kg): 94.4 ng/mL; t1/2 ([3]; male rats, 10 mg/kg): 147 min; AUC(0-inf) ([3]; male, rat, po, 10 mg/kg): 401 ng·h/mL; Tmax ([3]; rat, male rats, read-out: Tmax): 40.2 min"
4.56,,"C=CC(=O)Nc1cc(Nc2nccc(-n3c(=O)n(C)c4cc(Cl)ccc43)n2)c(OC)cc1N(C)CCN(C)C [Example 14, N-(5-(4-(5-chloro-3-methyl-2-oxo-2,3-dihydro-1H-benzo[d]imidazole-1-yl)pyrimidin-2-ylamino)-2-((2-(dimethylamino)ethyl)(methyl)amino)-4-methoxyphenyl) acrylamide Hydrochloride]",IC50 [2]: 538 nM
6.83,,"C=CC(=O)Nc1cc(Nc2nccc(-n3c(=O)n(C)c4cc(Br)ccc43)n2)c(OC)cc1N(C)CCN(C)C [Example 15, N-(5-(4-(5-bromo-3-methyl-2-oxo-2,3-dihydro-1H-benzo[d]imidazole-1-yl)pyrimidin-2-ylamino)-2-((2-(dimethylamino)ethyl)(methyl)amino)-4-methoxyphenyl) acrylamide Hydrochloride]",IC50 [2]: 834 nM
